Results on 37 compounds are retold here after PubChem BioAssay AID652019 (Molecular Libraries Program, Specialized Chemistry Center, …, 2013).

SMILES strings stand for the structures. The source made the active and inactive calls.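 Rule for the calls: active = compound whose activity held up on retesting over a range of doses, giving a fitted IC50; inactive = the rest.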 Bounds are passed on as bounds.

The test system of this assay is E. coli EV36, T7 phage lysis inhibition, OD600. Briefly: inhibition of T7 phage lysis, E. coli EV36, dose response, selectivity assay for bacterial capsule biogenesis inhibitor project, OD600, set 6 (AID 652019).
A word on the IC50: it is the concentration that inhibits the measured activity by half. `Cc1cnccc1NC(=O)c1ccc2nc(N)sc2c1`: the IC50 was > 50 µM (inactive).

`Cc1nc2ccc(C(=O)Nc3ccncc3C)cc2s1`: the IC50 was > 50 µM (inactive).

Consider `Cc1cnccc1NC(=O)c1ccc2ncsc2c1`, for which the concentration for half-maximal inhibition (IC50) is 3.58 µM.

Take `Nc1nc2ccc(C(=O)Nc3ccncc3F)cc2s1`: the IC50 is > 50 µM (inactive).

As for `CC(C)(C)OC(=O)Nc1nc2ccc(C(=O)Nc3ccnc(F)c3)cc2s1`, the IC50 is 1.16 µM.

In the case of `O=C(Nc1ccncc1Br)c1ccc2ncsc2c1`, the IC50 is > 50 µM (inactive).

As to `Cc1cnccc1NC(=O)c1ccc2nc(N3CCCC3)sc2c1`, the IC50 was > 50 µM (inactive).

On to `COc1cc(NC(=O)c2ccc3nc(C)sc3c2)ccn1`, for which the half-maximal inhibitory concentration (IC50) is 3.96 µM.

Take `CC(C)(C)OC(=O)Nc1ccc(NC(=O)c2ccc3nc(N4CCCC4)sc3c2)cn1`: the IC50 was > 50 µM (inactive).

For `O=C(Nc1ccncc1F)c1ccc2nc(N3CCCC3)sc2c1`, the IC50 was > 50 µM (inactive).

Consider `Cc1nc2ccc(C(=O)Nc3cnccc3NC(=O)OC(C)(C)C)cc2s1`, for which the IC50 is > 50 µM (inactive).

As for `O=C(Nc1ccncc1F)c1ccc2ncsc2c1`, the IC50 was 3.31 µM.

On to `O=C(Nc1ccnc(Cl)c1)c1ccc2nc(N3CCCC3)sc2c1`, for which the IC50 is > 50 µM (inactive).

On to `CC(C)(C)OC(=O)Nc1cnccc1NC(=O)c1ccc2nc(N)sc2c1`, for which the IC50 is > 50 µM (inactive).

Consider `Nc1ccncc1`, for which the IC50 was > 50 µM (inactive).

`O=C(O)c1ccc2ncsc2c1`: the IC50 was > 50 µM (inactive).

Regarding `Nc1cnccc1NC(=O)c1ccc2ncsc2c1`, the IC50 was > 50 µM (inactive).

For the compound `COc1cc(NC(=O)c2ccc3nc(NC(=O)OC(C)(C)C)sc3c2)ccn1`, the IC50 was > 50 µM (inactive).

Consider `CC(C)(C)OC(=O)Nc1nc2ccc(C(=O)Nc3ccncc3)cc2s1`, for which the IC50 was > 50 µM (inactive).

For the compound `Cc1cc(NC(=O)c2ccc3nc(NC(=O)OC(C)(C)C)sc3c2)ccn1`, the 50% inhibitory concentration (IC50) was 0.49 µM.

As to `COc1cc(NC(=O)c2ccc3nc(N)sc3c2)ccn1`, the IC50 is 0.94 µM.

As for `CC(C)(C)OC(=O)Nc1ccc(NC(=O)c2ccc3nc(NC(=O)OC(C)(C)C)sc3c2)cn1`, the IC50 was > 50 µM (inactive).

As for `Cc1nc2ccc(C(=O)Nc3ccncc3Br)cc2s1`, the IC50 is > 50 µM (inactive).

On to `O=C(Nc1ccnc(Br)c1)c1ccc2nc(N3CCCC3)sc2c1`, for which the IC50 was > 50 µM (inactive).

`O=C(Nc1ccncc1Br)c1ccc2nc(N3CCCC3)sc2c1`: the IC50 was > 50 µM (inactive).

Turning to `Cc1nc2ccc(C(=O)Nc3ccnc(F)c3)cc2s1`, the IC50 is > 50 µM (inactive).

Regarding `COc1cc(NC(=O)c2ccc3nc(N4CCCC4)sc3c2)ccn1`, the IC50 was > 50 µM (inactive).

`CC(C)(C)OC(=O)Nc1nc2ccc(C(=O)Nc3ccncc3Br)cc2s1`: the IC50 is > 50 µM (inactive).

For `Cc1cnccc1NC(=O)c1ccc2nc(NC(=O)OC(C)(C)C)sc2c1`, the IC50 is > 50 µM (inactive).

Regarding `CC(C)(C)OC(=O)Nc1cnccc1NC(=O)c1ccc2ncsc2c1`, the IC50 is > 50 µM (inactive).

As for `O=C(Nc1ccncc1)c1ccc2nc(N3CCCC3)sc2c1`, the IC50 is > 50 µM (inactive).

For `Nc1nc2ccc(C(=O)Nc3ccncc3)cc2s1`, the IC50 is > 50 µM (inactive).

`CC(C)(C)OC(=O)Nc1nc2ccc(C(=O)Nc3ccnc(Br)c3)cc2s1`: the IC50 was 3.66 µM.

Consider `CC(C)(C)OC(=O)Nc1nc2ccc(C(=O)Nc3ccnc(Cl)c3)cc2s1`, for which the half-inhibitory concentration (IC50) is 0.49 µM.

As for `Cc1nc2ccc(C(=O)Nc3ccncc3)cc2s1`, the IC50 is 2.54 µM.

Take `Cc1cc(NC(=O)c2ccc3nc(N4CCCC4)sc3c2)ccn1`: the IC50 was > 50 µM (inactive).

Regarding `Cc1nc2ccc(C(=O)Nc3ccncc3F)cc2s1`, the IC50 is > 50 µM (inactive).
